From ChEMBL document CHEMBL1157156, “A novel sesquiterpene lactone from Centaurea pullata: structure elucidation, antimicrobial activity, and prediction of pharmacokinetic properties” (2008)
≈ marks a conversion by molar mass, not a printed value.

Legend:
Micrococcus luteus = assay: Antimicrobial activity against Micrococcus flavus ATCC 10240 by serial dilution technique; format: functional
Alternaria alternata = assay: Antimicrobial activity against Alternaria alternata DMS2006 by serial dilution technique; format: functional
Trichoderma viride = assay: Antimicrobial activity against Trichoderma viride IAM5061 by serial dilution technique; format: functional
Escherichia coli = assay: Antimicrobial activity against Escherichia coli ATCC 35210 by serial dilution technique; format: functional
Aspergillus niger = assay: Antimicrobial activity against Aspergillus niger ATCC 6275 by serial dilution technique; format: functional
Pseudomonas tolaasii = assay: Antimicrobial activity against Pseudomonas tolaasii by serial dilution technique; format: functional
Fusarium tricinctum = assay: Antimicrobial activity against Fusarium tricinctum by serial dilution technique; format: functional
Penicillium ochrochloron = assay: Antimicrobial activity against Penicillium ochrochloron ATCC 9112 by serial dilution technique; format: functional
Bacillus subtilis = assay: Antimicrobial activity against Bacillus subtilis ATCC 10907 by serial dilution technique; format: functional
Salmonella enteritidis = assay: Antimicrobial activity against Salmonella enteritidis ATCC 13076 by serial dilution technique; format: functional, Salmonella enterica subsp. enterica serovar Enteritidis; details: Salmonella enterica
Talaromyces funiculosus = assay: Antimicrobial activity against Penicillium funiculosum ATCC 36839 by serial dilution technique; format: functional
Aspergillus ochraceus = assay: Antimicrobial activity against Aspergillus ochraceus ATCC 12066 by serial dilution technique; format: functional
[1] = tested on: Staphylococcus epidermidis; assay: Antimicrobial activity against Staphylococcus epidermidis ATCC 12228 by serial dilution technique; format: functional
Aspergillus flavus = assay: Antimicrobial activity against Aspergillus flavus ATCC 9643 by serial dilution technique; format: functional

SMILES	MBC (Micrococcus luteus) [µM]	MIC (Micrococcus luteus) [µM]	MFC (Alternaria alternata) [µM]	MIC (Alternaria alternata) [µM]	MFC (Trichoderma viride) [µM]	MIC (Trichoderma viride) [µM]	MIC (Escherichia coli) [µM]	MFC (Aspergillus niger) [µM]	MIC (Aspergillus niger) [µM]	MBC (Pseudomonas tolaasii) [µM]	MIC (Pseudomonas tolaasii) [µM]	MFC (Fusarium tricinctum) [µM]	MIC (Fusarium tricinctum) [µM]	MFC (Penicillium ochrochloron) [µM]	MIC (Penicillium ochrochloron) [µM]	MBC (Bacillus subtilis) [µM]	MIC (Bacillus subtilis) [µM]	MBC (Salmonella enteritidis) [µM]	MIC (Salmonella enteritidis) [µM]	MFC (Talaromyces funiculosus) [µM]	further results
C/C1=C\CC/C(CO)=C/[C@H]2OC(=O)[C@@H](C)[C@@H]2[C@@H](O)C1	1.1 (≈ 0.293 µg/mL)	1.1 (≈ 0.293 µg/mL)	0.7 (≈ 0.186 µg/mL)	0.7 (≈ 0.186 µg/mL)	0.7 (≈ 0.186 µg/mL)	0.3 (≈ 0.0799 µg/mL)	1.5 (≈ 0.4 µg/mL)	0.7 (≈ 0.186 µg/mL)	0.7 (≈ 0.186 µg/mL)	0.8 (≈ 0.213 µg/mL)	0.8 (≈ 0.213 µg/mL)	0.7 (≈ 0.186 µg/mL)	0.7 (≈ 0.186 µg/mL)	0.7 (≈ 0.186 µg/mL)	0.7 (≈ 0.186 µg/mL)	1.1 (≈ 0.293 µg/mL)	0.8 (≈ 0.213 µg/mL)	1.5 (≈ 0.4 µg/mL)	1.1 (≈ 0.293 µg/mL)	0.7 (≈ 0.186 µg/mL)	MIC (Talaromyces funiculosus): 0.7 µM (≈ 0.186 µg/mL); MFC (Aspergillus ochraceus): 0.7 µM (≈ 0.186 µg/mL); MIC (Aspergillus ochraceus): 0.7 µM (≈ 0.186 µg/mL); MBC [1]: 1.9 µM (≈ 0.506 µg/mL); MIC [1]: 1.5 µM (≈ 0.4 µg/mL); MFC (Aspergillus flavus): 0.7 µM (≈ 0.186 µg/mL); MIC (Aspergillus flavus): 0.3 µM (≈ 0.0799 µg/mL)
C=C[C@]1(C)C[C@H](O)[C@@H]2[C@H](OC(=O)[C@H]2C)[C@H]1C(=C)CO	2.3 (≈ 0.613 µg/mL)	2.3 (≈ 0.613 µg/mL)	0.7 (≈ 0.186 µg/mL)	0.7 (≈ 0.186 µg/mL)	0.7 (≈ 0.186 µg/mL)	0.3 (≈ 0.0799 µg/mL)	2.3 (≈ 0.613 µg/mL)	0.7 (≈ 0.186 µg/mL)	0.7 (≈ 0.186 µg/mL)	2.3 (≈ 0.613 µg/mL)	2.3 (≈ 0.613 µg/mL)	0.7 (≈ 0.186 µg/mL)	0.7 (≈ 0.186 µg/mL)	0.7 (≈ 0.186 µg/mL)	0.7 (≈ 0.186 µg/mL)	2.3 (≈ 0.613 µg/mL)	1.5 (≈ 0.4 µg/mL)	2.3 (≈ 0.613 µg/mL)	2.3 (≈ 0.613 µg/mL)	0.7 (≈ 0.186 µg/mL)	MIC (Talaromyces funiculosus): 0.7 µM (≈ 0.186 µg/mL); MFC (Aspergillus ochraceus): 0.7 µM (≈ 0.186 µg/mL); MIC (Aspergillus ochraceus): 0.7 µM (≈ 0.186 µg/mL); MBC [1]: 2.3 µM (≈ 0.613 µg/mL); MIC [1]: 2.3 µM (≈ 0.613 µg/mL); MFC (Aspergillus flavus): 0.7 µM (≈ 0.186 µg/mL); MIC (Aspergillus flavus): 0.7 µM (≈ 0.186 µg/mL)
C[C@@H]1C(=O)O[C@@H]2C3[C@H](C=O)CCC[C@]3(C)C[C@H](O)[C@@H]12 (some centres not stated)	0.7 (≈ 0.186 µg/mL)	0.5 (≈ 0.133 µg/mL)	0.2 (≈ 0.0533 µg/mL)	0.2 (≈ 0.0533 µg/mL)	0.4 (≈ 0.107 µg/mL)	0.4 (≈ 0.107 µg/mL)	0.5 (≈ 0.133 µg/mL)	0.6 (≈ 0.16 µg/mL)	0.6 (≈ 0.16 µg/mL)	1.1 (≈ 0.293 µg/mL)	0.7 (≈ 0.186 µg/mL)	0.4 (≈ 0.107 µg/mL)	0.2 (≈ 0.0533 µg/mL)	0.4 (≈ 0.107 µg/mL)	0.4 (≈ 0.107 µg/mL)	0.5 (≈ 0.133 µg/mL)	0.3 (≈ 0.0799 µg/mL)	0.5 (≈ 0.133 µg/mL)	0.3 (≈ 0.0799 µg/mL)	0.6 (≈ 0.16 µg/mL)	MIC (Talaromyces funiculosus): 0.4 µM (≈ 0.107 µg/mL); MFC (Aspergillus ochraceus): 0.4 µM (≈ 0.107 µg/mL); MIC (Aspergillus ochraceus): 0.4 µM (≈ 0.107 µg/mL); MBC [1]: 1.1 µM (≈ 0.293 µg/mL); MIC [1]: 0.7 µM (≈ 0.186 µg/mL); MFC (Aspergillus flavus): 0.4 µM (≈ 0.107 µg/mL); MIC (Aspergillus flavus): 0.2 µM (≈ 0.0533 µg/mL)
C=C[C@]1(C)C[C@H](OC(=O)C(=C)CCO)[C@@H]2[C@H](OC(=O)[C@H]2C)[C@H]1C(=C)CO	0.5 (≈ 0.182 µg/mL)	0.4 (≈ 0.146 µg/mL)	0.1 (≈ 0.0364 µg/mL)	0.1 (≈ 0.0364 µg/mL)	0.2 (≈ 0.0729 µg/mL)	0.2 (≈ 0.0729 µg/mL)	0.4 (≈ 0.146 µg/mL)	0.3 (≈ 0.109 µg/mL)	0.3 (≈ 0.109 µg/mL)	0.8 (≈ 0.292 µg/mL)	0.5 (≈ 0.182 µg/mL)	0.2 (≈ 0.0729 µg/mL)	0.1 (≈ 0.0364 µg/mL)	0.2 (≈ 0.0729 µg/mL)	0.2 (≈ 0.0729 µg/mL)	0.4 (≈ 0.146 µg/mL)	0.2 (≈ 0.0729 µg/mL)	0.4 (≈ 0.146 µg/mL)	0.2 (≈ 0.0729 µg/mL)	0.3 (≈ 0.109 µg/mL)	MIC (Talaromyces funiculosus): 0.2 µM (≈ 0.0729 µg/mL); MFC (Aspergillus ochraceus): 0.2 µM (≈ 0.0729 µg/mL); MIC (Aspergillus ochraceus): 0.2 µM (≈ 0.0729 µg/mL); MBC [1]: 0.8 µM (≈ 0.292 µg/mL); MIC [1]: 0.5 µM (≈ 0.182 µg/mL); MFC (Aspergillus flavus): 0.2 µM (≈ 0.0729 µg/mL); MIC (Aspergillus flavus): 0.1 µM (≈ 0.0364 µg/mL)
C[C@@H]1C(=O)O[C@H]2[C@H]1[C@@H](O)C[C@]1(C)[C@@H]2[C@@H](C=O)CC[C@H]1O	0.7 (≈ 0.198 µg/mL)	0.7 (≈ 0.198 µg/mL)	0.3 (≈ 0.0847 µg/mL)	0.3 (≈ 0.0847 µg/mL)	0.7 (≈ 0.198 µg/mL)	0.7 (≈ 0.198 µg/mL)	1 (≈ 0.282 µg/mL)	0.3 (≈ 0.0847 µg/mL)	0.3 (≈ 0.0847 µg/mL)	0.7 (≈ 0.198 µg/mL)	0.7 (≈ 0.198 µg/mL)	0.3 (≈ 0.0847 µg/mL)	0.3 (≈ 0.0847 µg/mL)	0.7 (≈ 0.198 µg/mL)	0.3 (≈ 0.0847 µg/mL)	0.7 (≈ 0.198 µg/mL)	0.7 (≈ 0.198 µg/mL)	1 (≈ 0.282 µg/mL)	0.7 (≈ 0.198 µg/mL)	0.7 (≈ 0.198 µg/mL)	MIC (Talaromyces funiculosus): 0.7 µM (≈ 0.198 µg/mL); MFC (Aspergillus ochraceus): 0.3 µM (≈ 0.0847 µg/mL); MIC (Aspergillus ochraceus): 0.3 µM (≈ 0.0847 µg/mL); MBC [1]: 1.4 µM (≈ 0.395 µg/mL); MIC [1]: 1 µM (≈ 0.282 µg/mL); MFC (Aspergillus flavus): 0.3 µM (≈ 0.0847 µg/mL); MIC (Aspergillus flavus): 0.3 µM (≈ 0.0847 µg/mL)
Clc1ccc(COC(Cn2ccnc2)c2ccc(Cl)cc2Cl)c(Cl)c1 (configuration not stated) [MICONAZOLE]	–	–	2 (≈ 0.832 µg/mL)	0.4 (≈ 0.166 µg/mL)	4 (≈ 1.66 µg/mL)	4 (≈ 1.66 µg/mL)	–	8 (≈ 3.33 µg/mL)	3 (≈ 1.25 µg/mL)	–	–	2 (≈ 0.832 µg/mL)	0.4 (≈ 0.166 µg/mL)	10 (≈ 4.16 µg/mL)	4 (≈ 1.66 µg/mL)	–	–	–	–	10 (≈ 4.16 µg/mL)	MIC (Talaromyces funiculosus): 4 µM (≈ 1.66 µg/mL); MFC (Aspergillus ochraceus): 8 µM (≈ 3.33 µg/mL); MIC (Aspergillus ochraceus): 3 µM (≈ 1.25 µg/mL); MFC (Aspergillus flavus): 4 µM (≈ 1.66 µg/mL); MIC (Aspergillus flavus): 1 µM (≈ 0.416 µg/mL)
CN[C@@H]1[C@H](O[C@H]2[C@H](O[C@H]3[C@H](O)[C@@H](O)[C@H](N=C(N)N)[C@@H](O)[C@@H]3N=C(N)N)O[C@@H](C)[C@]2(O)C=O)O[C@@H](CO)[C@H](O)[C@H]1O [STREPTOMYCIN]	1.6 (≈ 0.931 µg/mL)	0.8 (≈ 0.465 µg/mL)	–	–	–	–	0.8 (≈ 0.465 µg/mL)	–	–	1.6 (≈ 0.931 µg/mL)	1.6 (≈ 0.931 µg/mL)	–	–	–	–	0.8 (≈ 0.465 µg/mL)	0.8 (≈ 0.465 µg/mL)	1.6 (≈ 0.931 µg/mL)	1.6 (≈ 0.931 µg/mL)	–	MBC [1]: 1.6 µM (≈ 0.931 µg/mL); MIC [1]: 1.6 µM (≈ 0.931 µg/mL)
